Like-named read-outs stand apart in the source and are kept apart here.
What was measured:
YAP [1] = format: cell-based, human
YAP mRNA = YAP mRNA level by RT-PCR; format: cell-based, human; details: BOCs 293 cells; 3 μM; 12 and 24 hr
YAP [2] = assay: YAP ubiquitination (YAP immunoprecipitation, ubiquitin Western blot); format: cell-based, human; details: SF268 glioblastoma cells
M14 cells = assay: wound healing assay; format: cell-based, human; details: M14 melanoma; 24 hr scratch assay
Description: Control and […] treated cells were plated on fibronectin ([…]) coated 6 well plates in complete growth media. After overnight culture, wounds were made by manual scraping of the cell monolayer with a pipet tip. The dishes were washed, replenished with media in the presence or absence of […], and photographed under phase contrast microscope. They were then placed in the tissue culture incubator, and the matched wound regions were photographed every 6 hrs. Migration rate is quantified by traveling distance of leading cellular edge normalized to initial gap distance.

M14 = assay: transwell cell migration assay, M14; format: cell-based, human; details: 1, 2 and 3 μM C108
Description: Cell migration assay was performed using BD Falcon™ Cell culture inserts for 24-well plates with 22.0 μm pores filter, and the filter was pre-coated with […] Fibronectin. […] After 24 h, cells were fixed using 4% paraformaldehyde and stained using 0.05% crystal violet. Cells in upper chamber were carefully removed, and cells migrated through the filter were assessed by photography. For quantification, crystal violet was extracted and the absorbance at 560 nm was measured.

SK-Mel-28 melanoma = assay: cell migration assay, SK-Mel-28; format: cell-based, human
Description: (§1) Cell migration assay was performed using BD Falcon™ Cell culture inserts for 24-well plates with 22.0 μm pores filter, and the filter was pre-coated with […] Fibronectin. Cancer cells were serum-starved for 24 h and then seeded into the upper chamber of the insert in serum-free media, and lower chamber was filled with media containing 20% FBS with or without 2 μM C108. After 24 h, cells were fixed using 4% paraformaldehyde and stained using 0.05% crystal violet. Cells in upper chamber were carefully removed, and cells migrated through the filter were assessed by photography. For quantification, crystal violet was extracted and the absorbance at 560 nm was measured.

EKVX adenocarcinoma = assay: cell migration assay, EKVX; format: cell-based, human
Description: as §1

M14 Melanoma = assay: M14 melanoma cell proliferation (growth curve); format: cell-based, human
[3] = test system: EKVX adenocarcinoma xenograft; assay: EKVX adenocarcinoma xenograft in nude mice; format: in vivo, mouse; details: 100 mg/kg daily via tail-vein injection, three weeks
Description: (§2) Cells grown to 90% confluence were harvested by trypsinization, washed in phosphate-buffered saline (PBS), and resuspended in PBS supplemented with 50% matrigel (BD Biosciences). Cells in 200 μL per injection site were administered. Nude mice (Nu-foxn1nu, Charles Rivers Laboratories) were injected on both flanks of the dorsolateral sites subcutaneously. C108 was formulated in 10% DMSO and 40% propylene glycol then administered at a dose of 100 mg/kg daily via tail-vein injection. Control mice received vehicle alone. The average tumor diameter (two perpendicular axes of the tumor were measured) was recorded. The data are expressed in tumor volume estimated by ([width]^2×length/2). Paired, two-tailed Student's t-test was performed to access the statistical significance.
In order to investigate the physiological impact of C108 on implanted tumor cell growth, in vivo xenograft models using M14 melanoma and EKVX adenocarcinoma in immune compromised mice were examined. Cancer cells mixed with 50% matrigel were injected subcutaneously, palpable tumors with approximately 5 mm in diameter across all injection sites were observed within 3 weeks. […] During the treatment period, tumor growth was monitored and final tumor weights were measured.

M14 melanoma xenograft = M14 melanoma xenograft in nude mice
Description: as §2
In order to investigate the physiological impact of C108 on implanted tumor cell growth, in vivo xenograft models using M14 melanoma and EKVX adenocarcinoma in immune compromised mice were examined. Cancer cells mixed with 50% matrigel were injected subcutaneously, palpable tumors with approximately 5 mm in diameter across all injection sites were observed within 3 weeks. At that point, control group (6 mice) was tail-vein injected with the solvent consist of 10% DMSO and 40% propylene glycol while the treatment group (6 mice) received daily injection of C108 for three additional weeks. During the treatment period, tumor growth was monitored and final tumor weights were measured.

Question: How did the “YAP protein in the presence of cycloheximide” value (YAP [1]; 10 μM C108, 12 hrs) turn out when O=S(=O)(c1ccc2c(c1)C(=NO)c1cc(S(=O)(=O)N3CCCCC3)ccc1-2)N1CCCCC1 [C108, 2,7-bis(piperidin-1-yl-sulfonyl)-9H-fluoren-9-one oxime] was run?
Answer: The value was “rapidly diminished”.

Question: What about the YAP protein levels (YAP [1]; BOCS cells, 16 hours of treatment) of the same molecule?
Answer: Its YAP protein levels is “dramatic decrease”.

Question: And the “concentration at which endogenous YAP protein was significantly reduced” value (YAP [1]; BOCs 293 cells, 12 and 24 hr of drug exposure)?
Answer: The value was 2 to 3 µM.

Question: And the YAP protein levels (YAP [1]; SF268 glioma, M14 melanoma and SK-Mel-28 melanoma)?
Answer: Its YAP protein levels is “decreased”.

Question: What about the “YAP mRNA levels” value (YAP mRNA) of the same molecule?
Answer: Its value is “no noticeable changes”.

Question: What about the “endogenous YAP ubiquitination” value (YAP [2]) of the same molecule?
Answer: The value was “dramatically increased”.

Question: And the “cell migration in wound-healing assay” value (M14 cells)?
Answer: Its value is “strongly inhibited”.

Question: What about the “migration of M14” value (M14) of the same molecule?
Answer: The value was “suppressed”.

Question: And the “migration of SK-Mel-28 melanoma” value (SK-Mel-28 melanoma)?
Answer: Its value is “suppressed”.

Question: What about the “migration of EKVX adenocarcinoma” value (EKVX adenocarcinoma) of the same molecule?
Answer: Its value is “suppressed”.

Question: And the “M14 Melanoma cell proliferation” value (M14 Melanoma)?
Answer: The value was “inhibitory effect”.

Question: What about the “growth of EKVX xenograft tumors” value [3] of the same molecule?
Answer: The value was “significantly inhibited”.

Question: And the total body weight (M14 melanoma xenograft; 100 mg/kg daily via tail-vein injection, three weeks)?
Answer: The total body weight was “not affected”.

Question: And the “growth of M14 xenograft tumors” value (M14 melanoma xenograft; 100 mg/kg daily via tail-vein injection, three weeks, nude mice)?
Answer: The value was “significantly inhibited”.

Question: And the “apoptotic marker cleaved PARP in tumors (Western blot)” value (M14 melanoma xenograft; M14 tumors from treated mice)?
Answer: Its value is “dramatic increase”.

Question: What about the “level of YAP in tumor tissues (Western blot)” value (M14 melanoma xenograft; M14 tumors from treated mice) of the same molecule?
Answer: Its value is “lower level”.

Question: And the “Hematoxylin and Eosin stain of tumor sections” value (M14 melanoma xenograft; melanoma xenografts)?
Answer: Its value is “sparser and have lower nuclear to cytoplasimc ratio”.

From patent US20150157584A1, “INHIBITORS OF HIPPO-YAP SIGNALING PATHWAY” (The Regents of the University of California, priority 2012, published 2015)
